Experimental findings from ChEMBL document CHEMBL1201862, “PubChem BioAssay data set” (2004) are described below.

Holding throughout (experiment): DTP human tumour cell line panel, 48 h
Test [1] concerns ACHN.
Test [2] concerns NCI-H226.
For test [3], the system named is SK-OV-3.
Test [4] deals with OVCAR-5.
For test [5], the system named is M14.
The subject of test [6] is NCI-H460.
Test [7] relates to HOP-62.
Test [8] concerns HL-60.
Test [9] has as its system HCC 2998.
The test system of test [10] is RPMI-8226.
Test [11] deals with EKVX.
Test [12] concerns UACC-257.
In test [13] the test system is MDA-MB-435.
In test [14] the test system is SK-MEL-28.
Test [15] relates to LOX IMVI.
Test [16] has as its system SF-268.
The test system of test [17] is OVCAR-3.
The subject of test [18] is SK-MEL-5.
Test [19] has as its system Malme-3M.
Test [20] concerns A498.

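Exposure lasted 48 hours, with cells grown in 96-well plates and compounds tested at five concentrations. GI50 is the concentration that inhibits growth by half.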 Active and inactive are the calls of the source. No stated cut-off is given here; in the data, active = GI50 up to about 1.1 µM and inactive = higher.

A word on the GI50: it is the concentration giving 50% growth inhibition. Turning to `Cc1cn(CCOCCOC(=O)NC(CCCNC(N)=O)C(=O)O)c(=O)[nH]c1=O` (centres undefined), the GI50 in [1], in [2], in [3], in test [4], in test [5] and in [6] was > 100 µM (inactive) in each case. Moreover, the GI50 in test [7], in test [8], in [9], in [10], in test [11] and in [12] was > 100 µM (inactive) each time. For the same compound, the GI50 in test [13], in [14], in [15], in test [16] and in test [17] was > 100 µM (inactive) each time.
On to `CN(Cc1nc2c(N)nc(N)nc2nc1N)c1ccc(C(=O)NC(CCC(=O)O)C(=O)O)cc1` (centres undefined), for which the GI50 in test [1] was 0.041 µM (active); in test [2] it was > 100 µM (inactive); in [3], > 100 µM (inactive); in test [4], 17.7 µM (inactive); in test [18], 1.55 µM (inactive); in [5] it was 0.0615 µM (active). Besides, the GI50 was < 0.0122 µM (active) in test [6]; 0.231 µM (active) in [7]; < 0.01 µM (active) in [8]; 3.65 µM (inactive) in test [9]; > 75.2 µM (inactive) in test [10]; 5.58 µM (inactive) in [12]. Besides, the GI50 was 0.0277 µM (active) in test [13]; > 76.4 µM (inactive) in test [14]; < 0.01 µM (active) in [15]; 0.299 µM (active) in [16]; > 100 µM (inactive) in test [17].
For the compound `c1ccc(SCCP(CCP(c2ccccc2)c2ccccc2)c2ccccc2)cc1` (centres undefined), the GI50 is 5.02 µM (inactive) in test [1]; 23.1 µM (inactive) in test [2]; 6.61 µM (inactive) in test [3]; 46.6 µM (inactive) in test [4]; 14 µM (inactive) in test [18]; 10.5 µM (inactive) in test [5]. In addition, the GI50 in [6] was 2.84 µM (inactive); in test [7] it was 8.2 µM (inactive); in [8], 2.09 µM (inactive); in [9], 12.2 µM (inactive); in test [10], 3.14 µM (inactive); in test [11] it was 9.02 µM (inactive). For the same compound, the GI50 in test [12] is 11.7 µM (inactive); in test [13] it was 11.5 µM (inactive); in test [19] it was 11.5 µM (inactive); in [14] it was 21.3 µM (inactive); in test [16], > 25.5 µM (inactive); in test [17], 3.88 µM (inactive).
For `NC1CSc2ccccc2NC1=O` (centres undefined), the GI50 in [1], in test [2], in test [3], in test [4], in test [18] and in test [5] was > 100 µM (inactive) in each case. Also, the GI50 in [6], in [7], in test [8], in test [9], in [10] and in [11] was > 100 µM (inactive) each time. The GI50 in test [12], in test [13], in test [19], in [14], in test [15] and in [16] was > 100 µM (inactive) throughout. For the same compound, the GI50 in test [17] was > 100 µM (inactive).
In the case of `CCOC(=O)c1cc2cc(CSc3ccccc3)ccc2oc1=O`, the GI50 in [1] was > 100 µM (inactive); in test [2], > 100 µM (inactive); in test [3] it was > 100 µM (inactive); in test [4], > 100 µM (inactive); in test [18], > 100 µM (inactive); in test [5] it was 51.5 µM (inactive). Moreover, the GI50 is > 100 µM (inactive) in test [6]; 51.3 µM (inactive) in [7]; 42.6 µM (inactive) in test [9]; 51.9 µM (inactive) in test [10]; > 100 µM (inactive) in [11]; > 100 µM (inactive) in test [12]. Further, the GI50 was > 100 µM (inactive) in test [13]; > 100 µM (inactive) in test [19]; > 100 µM (inactive) in test [14]; > 100 µM (inactive) in test [15]; > 100 µM (inactive) in [16]; 96.6 µM (inactive) in [17].
For `CC(=O)NNC(=S)N/C=C1/C(=O)C=C(C)OC1=O`, the GI50 in [1], in [2], in [3], in test [4], in [18] and in [5] was > 100 µM (inactive) in each case. For the same compound, the GI50 in test [6], in test [7], in test [8], in test [9], in test [11] and in test [12] was > 100 µM (inactive) throughout. Moreover, the GI50 in test [13], in test [14], in test [15] and in test [17] was > 100 µM (inactive) in each case.
As for `S=C(Nc1ccc2c(c1)oc1ccccc12)c1cccnc1`, the GI50 is 29.2 µM (inactive) in test [1]; 24.3 µM (inactive) in test [2]; 20.4 µM (inactive) in test [3]; 55.8 µM (inactive) in test [4]; 70.8 µM (inactive) in [18]; > 100 µM (inactive) in [5]. Besides, the GI50 in test [6] is 24.6 µM (inactive); in test [7] it was 17.1 µM (inactive); in test [9], > 100 µM (inactive); in test [10], > 100 µM (inactive); in test [11], 65.9 µM (inactive); in test [13], > 100 µM (inactive). The GI50 was > 100 µM (inactive) in [19]; > 100 µM (inactive) in [14]; > 100 µM (inactive) in test [15]; 29.5 µM (inactive) in test [16]; 22 µM (inactive) in test [17].
As to `CC1(C)CN=C(Nc2ccc(F)c(Cl)c2)S1`, the GI50 in test [1], in test [2], in [3], in test [4], in test [18] and in [5] was > 100 µM (inactive) each time. In addition, the GI50 in test [7], in test [8], in [9], in test [10], in test [11] and in test [12] was > 100 µM (inactive) in each case. The GI50 in test [13], in [19], in test [14], in test [15], in [16] and in test [17] was > 100 µM (inactive) each time.
In the case of `CC(=O)Oc1cc(-c2oc3cc(OC(C)=O)c(C4OC(CO)C(O)C(O)C4O)c(OC(C)=O)c3c(=O)c2O)c(OC(C)=O)cc1O` (centres undefined), the GI50 in [1] was > 100 µM (inactive); in test [2], 91.8 µM (inactive); in test [3] it was > 100 µM (inactive); in [4] it was > 100 µM (inactive); in test [18], > 100 µM (inactive); in [5], > 100 µM (inactive). The GI50 is > 100 µM (inactive) in [6]; > 100 µM (inactive) in test [7]; > 100 µM (inactive) in test [8]; > 100 µM (inactive) in test [9]; 56.4 µM (inactive) in [10]; > 100 µM (inactive) in test [11]. The GI50 in test [12], in test [13], in test [19], in test [15] and in test [17] was > 100 µM (inactive) each time.
Take `CCOC(=O)C1NCCc2c1[nH]c1ccccc21` (centres undefined): the GI50 in test [3], in test [18], in [5], in [7], in test [8] and in [9] was > 10 µM (inactive) each time. Further, the GI50 in test [10], in [11], in test [12], in test [13], in [19] and in [14] was > 10 µM (inactive) throughout. Moreover, the GI50 in [16] and in test [17] was > 10 µM (inactive) each time.
`Cc1ccc2nc(-c3ccccc3)c(N=O)n2c1`: the GI50 is 46.9 µM (inactive) in test [1]; 29.1 µM (inactive) in test [2]; > 100 µM (inactive) in test [3]; 43.5 µM (inactive) in [4]; 46.3 µM (inactive) in [18]; 68.2 µM (inactive) in [5]. In addition, the GI50 is 50.1 µM (inactive) in test [6]; 56 µM (inactive) in test [7]; 36.1 µM (inactive) in test [10]; 20.5 µM (inactive) in test [11]; 37 µM (inactive) in [12]; 40 µM (inactive) in [13]. Moreover, the GI50 is 29.5 µM (inactive) in test [19]; 45.9 µM (inactive) in test [14]; 46.5 µM (inactive) in test [15]; 69.2 µM (inactive) in test [16]; 32.4 µM (inactive) in test [17]; > 100 µM (inactive) in test [20].
